Test results published in patent publication US12077503B2, “Substituted cyclic amides and their use as herbicides” (FMC CORPORATION, priority 2015, dated 2024).

Columns and labels:
Format in all cases: in vivo
Kochia (Kochia scoparia) [1] = assay: Test A preemergence; conditions: Bassia scoparia, pre-emergence, 240 h, preemergence, read-out: Kochia plant response rating
How it was run: (§1)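 Treatment is preemergence as a directed soil spray after planting, or postemergence at the one- to two-leaf stage, with test chemical in a non-phytotoxic solvent mixture plus surfactant. Plants stay in the greenhouse about 10 d before visual injury scoring on a 0 to 100 scale versus untreated controls.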

[2] = system: barnyardgrass (Echinochloa crus-galli); assay: Test A preemergence; conditions: Echinochloa crus-galli, pre-emergence, 240 h
How it was run: as §1

[3] = system: giant foxtail (Setaria faberii); assay: Test A preemergence; conditions: Setaria faberi, pre-emergence, 240 h
How it was run: as §1

[4] = system: pigweed (Amaranthus retroflexus); assay: Test A preemergence; conditions: Amaranthus retroflexus, pre-emergence, 240 h, preemergence, read-out: Pigweed plant response rating
[5] = system: ragweed (common ragweed, Ambrosia elatior); assay: Test A preemergence; conditions: Ambrosia artemisiifolia, pre-emergence, 240 h, preemergence, read-out: Ragweed plant response rating
How it was run: as §1

[6] = system: ryegrass, Italian (Italian ryegrass, Lolium multiflorum); assay: Test A preemergence; conditions: Lolium multiflorum, pre-emergence, 240 h, preemergence, read-out: Ryegrass, Italian plant response rating
How it was run: as §1

[7] = system: Galium (catchweed bedstraw, Galium aparine); assay: Test A postemergence; conditions: Galium, post-emergence, 240 h, postemergence, read-out: Galium plant response rating
How it was run: as §1

Kochia (Kochia scoparia) [8] = assay: Test A postemergence; conditions: Bassia scoparia, post-emergence, 240 h, postemergence, read-out: Kochia plant response rating
How it was run: as §1

[9] = system: barnyardgrass (Echinochloa crus-galli); assay: Test A postemergence; conditions: Echinochloa crus-galli, post-emergence, 240 h, postemergence, read-out: Barnyardgrass plant response rating
How it was run: as §1

[10] = system: blackgrass (Alopecurus myosuroides); assay: Test A postemergence; conditions: Alopecurus myosuroides, post-emergence, 240 h, postemergence, read-out: Blackgrass plant response rating
How it was run: as §1

corn (Zea mays) = assay: Test A postemergence; conditions: Zea mays, post-emergence, 240 h, postemergence, read-out: Corn plant response rating
How it was run: as §1

[11] = system: giant foxtail (Setaria faberii); assay: Test A postemergence; conditions: Setaria faberi, post-emergence, 240 h, postemergence, read-out: Foxtail, Giant plant response rating
How it was run: as §1

[12] = system: pigweed (Amaranthus retroflexus); assay: Test A postemergence; conditions: Amaranthus retroflexus, post-emergence, 240 h, postemergence, read-out: Pigweed plant response rating
How it was run: as §1

[13] = system: ragweed (common ragweed, Ambrosia elatior); assay: Test A postemergence; conditions: Ambrosia artemisiifolia, post-emergence, 240 h, postemergence, read-out: Ragweed plant response rating
How it was run: as §1

[14] = system: ryegrass, Italian (Italian ryegrass, Lolium multiflorum); assay: Test A postemergence; conditions: Lolium multiflorum, post-emergence, 240 h, postemergence, read-out: Ryegrass, Italian plant response rating
How it was run: as §1

[15] = system: wheat (Triticum aestivum); assay: Test A postemergence; conditions: Triticum aestivum, post-emergence, 240 h, postemergence, read-out: Wheat plant response rating
How it was run: as §1

[16] = 125 g ai/ha, 0 to 100 scale where 0 is no effect and 100 is complete control, approx. 10 d
[17] = 500 g ai/ha, visual injury rating about 10 d after treatment, 0 to 100 scale (0 no effect, 100 complete control)
[18] = 125 g ai/ha, visual injury on 0 to 100 scale (0 no effect, 100 complete control), approx. 10 d
[19] = 500 g ai/ha, 0 to 100 scale, 0 is no effect, 100 is complete control

CC(C)=CC1CNC(=O)C1C(=O)Nc1ccccc1S(C)(=O)=O (centres unmarked) [Compound 1057]
0%: pest or weed control at 125 g/ha (Kochia (Kochia scoparia) [1]; [16]) | pest or weed control at 500 g/ha (Kochia (Kochia scoparia) [1]; [17]) | pest or weed control at 125 g/ha ([2]; 125 g ai/ha, Preemergence, visual injury rating after approximately 10 d, read-out: Barnyardgrass plant response rating (0 to 100 scale, 0 is no effect, 100 is complete control)) | pest or weed control at 500 g/ha ([2]; 500 g ai/ha, preemergence, visual injury rating about 10 d after treatment, 0 to 100 scale (0 no effect, 100 complete control), read-out: Barnyardgrass plant response rating) | pest or weed control at 125 g/ha ([3]; 125 g ai/ha, Preemergence, visual injury rating after approximately 10 d, read-out: Foxtail, Giant plant response rating (0 to 100 scale, 0 is no effect, 100 is complete control)) | pest or weed control at 500 g/ha ([3]; 500 g ai/ha, preemergence, visual injury rating about 10 d after treatment, 0 to 100 scale (0 no effect, 100 complete control), read-out: Foxtail, Giant plant response rating) | pest or weed control at 125 g/ha [4, 16] | pest or weed control at 500 g/ha [4, 17] | pest or weed control at 125 g/ha [5, 16] | pest or weed control at 500 g/ha [5, 17] | pest or weed control at 125 g/ha [6, 16] | pest or weed control at 500 g/ha [6, 17] | pest or weed control at 125 g/ha [7, 18] | pest or weed control at 500 g/ha [7, 19] | pest or weed control at 125 g/ha (Kochia (Kochia scoparia) [8]; [18]) | pest or weed control at 500 g/ha (Kochia (Kochia scoparia) [8]; [19]) | pest or weed control at 125 g/ha [9, 18] | pest or weed control at 500 g/ha [9, 19] | pest or weed control at 125 g/ha [10, 18] | pest or weed control at 500 g/ha [10, 19] | plant injury at 125 g/ha (corn (Zea mays); [18]) | plant injury at 500 g/ha (corn (Zea mays); [19]) | pest or weed control at 125 g/ha [11, 18] | pest or weed control at 500 g/ha [11, 19] | pest or weed control at 125 g/ha [12, 18] | pest or weed control at 500 g/ha [12, 19] | pest or weed control at 125 g/ha [13, 18] | pest or weed control at 500 g/ha [13, 19] | pest or weed control at 125 g/ha [14, 18] | pest or weed control at 500 g/ha [14, 19] | plant injury at 125 g/ha [15, 18] | plant injury at 500 g/ha [15, 19]
